Results on 14 compounds are retold here after patent US20100209508A1, “Substituted Phenylphosphates as Mutual Prodrugs of Steroids and ß-Agonists for the Treatment of Title Pulmonary Inflammation and Bronchoconstriction” (CORUS PHARMA, INC., priority 2005, published 2010).

Like-named read-outs stand apart in the source and are kept apart here.

In one series the test system is alkaline phosphatase. The series can be described thus: Conversion of mutual prodrugs after exposure to alkaline phosphatase (ALP experiment).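 As to all read-outs here: mutual prodrug and its released products quantified by LCMS over time in buffer with alkaline phosphatase, compared against enzyme-free control buffer, incubations running 25–50 hours.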 The note with it: for Salmeterol Concentration: mutual prodrug 16 + alkaline phosphatase.
For series [1], the system named is splenic lymphocytes isolated from C57BL/6 mice and CBA mice. The series can be described thus: Immunosuppression ([3H]TMD incorporation in mouse splenic lymphocytes). Format: cell-based. Particulars: "Not active" = less than 25% inhibition at 1000 nM.
The test system of the next series is TNF-α. The series can be described thus: TNF-α secretion (h) (PBMC). The format is cell-based, human. The note with it: LPS (1 μg/ml), 24 h/37° C., EIA, "Not active" = less than 25% inhibition at highest tested concentration 1000 nM; for IC50: read-out: TNF-α secretion IC50.
The test system of a further series is cytokine release. Nature of the series: Panel of standard cell-based in vitro assays evaluating cytokine release inhibition. The note with it: prodrugs compared to the steroid drugs (Examples 27 and 62, respectively). The procedure: The selected compounds of the invention were tested in a panel of standard, cell-based in vitro assays evaluating the cytokine release inhibition and thus the anti-inflammatory activity of a test article. Several potent steroid analogs were identified, namely compounds described in Examples 23, 27, 43, 59 and 62. […] Therefore by masking the pharmacological properties of a respective steroid the mutual prodrug mitigates the oropharyngeal side effects and confines the antiinflammatory activity of a steroid to the endobronchial space, where the lung enzymes (specifically alkaline phosphatase) release the pharmacologically active steroid (see Examples 141-143).

The test system of the next series is IL-1β. The series can be described thus: IL-1β secretion (h) (PBMC). Format: cell-based. The note with it: Homo sapiens, LPS (1 μg/ml), 24 h/37° C., EIA.
The mark [2] stands for this setting: read-out: Immunosuppresion IC50, mouse splenic lymphocytes, 72 h/37° C., [3H]TMD incorporation.
[3] abbreviates: Mus musculus, Splenic lymphocyte, read-out: Immunosuppresion IC50, mouse splenic lymphocytes, 72 h/37° C., [3H]TMD incorporation.

Protocol for alkaline phosphatase: Reaction and control solutions were prepared by adding a 500 μL aliquot of a ˜200 ng/μl solution in 1:1 acetonitrile/water of and the compound 16 (or alternatively 17) to 500 μl of a pH 7.4 buffer solution, containing 5 mM tris(hydroxymethyl)aminomethane, 1 mM ZnCl2, 1 mM MgCl2. For the reaction solutions, the buffer also contained approximately 600 ng/μl of alkaline phosphatase (Sigma-Aldrich) whereas the control buffer solutions contained no enzyme. The reaction and control solutions were incubated at 37° C. for 25 to 50 hours. The solutions were analyzed periodically for the respective mutual prodrug and reaction products by LCMS.
The concentration of the alkaline phosphatase in the reaction buffer was ˜600 ng/μL (the enzyme activity of the solution was not determined).
The concentration of the alkaline phosphatase in the buffer added to the stock solution was ˜600 ng/μl (the enzyme activity of the solution was not determined).

With `OCc1cc(C(O)CNCCCCCCOCCCCc2ccccc2)ccc1O` (stereo not drawn) [Salmeterol, salmeterol, reference compound], the “Salmeterol Concentration” value with alkaline phosphatase (0.00 Hours @ 37° C.) stood at 0.1 nmol/mL; with alkaline phosphatase (0.59 Hours @ 37° C.), 1.8 nmol/mL; with alkaline phosphatase (1.19 Hours @ 37° C.) it was 4.4 nmol/mL; in the series with alkaline phosphatase (2.96 Hours @ 37° C.) it was 12.3 nmol/mL; with alkaline phosphatase (3.56 Hours @ 37° C.), 14.4 nmol/mL; with alkaline phosphatase (4.15 Hours @ 37° C.), 17.1 nmol/mL. Moreover, the “Salmeterol Concentration” value was found to be 34.2 nmol/mL in the series on alkaline phosphatase (10.67 Hours @ 37° C.); 41.4 nmol/mL with alkaline phosphatase (15.41 Hours @ 37° C.); 44.8 nmol/mL in the series with alkaline phosphatase (19.56 Hours @ 37° C.); 46.9 nmol/mL with alkaline phosphatase (24.30 Hours @ 37° C.); 48.1 nmol/mL in the series with alkaline phosphatase (30.82 Hours @ 37° C.); 49.6 nmol/mL with alkaline phosphatase (34.97 Hours @ 37° C.).

`C[C@]12C=CC(=O)C=C1CC[C@H]1[C@@H]3C[C@H]4OC(c5cccnc5)O[C@@]4(C(=O)CO)[C@@]3(C)C[C@H](O)[C@@]12F` (single isomer, unassigned) [Example 22S-epimer]: the IC50 in series [1] (setting [2]) was 36 nM; with TNF-α, over 1000 nM.

For `C[C@]12C=CC(=O)C=C1CC[C@H]1[C@@H]3C[C@H]4O[C@@H](C5CCCCC5)O[C@@]4(C(=O)CN4CCC4)[C@@]3(C)C[C@H](O)[C@@]12F` [Example 43, 16,17-[(Cyclohexylmethylene)bis(oxy)]-9-fluoro-11-hydroxy-21-(azetidin-1-yl)-pregna-1,4-diene-3,20-dione[11β,16α(R)]], the IC50 in series [1] (setting [3]) is 8.8 nM; in the series with TNF-α (Homo sapiens, 24 h) it was over 1000 nM. Besides, in the series on cytokine release, the “anti-inflammatory activity (cytokine release inhibition), assessment in words” value is on record as “potent”.

For `C[C@]12C=CC(=O)C=C1CC[C@H]1[C@@H]3C[C@H]4O[C@@H](C5CCCCC5)O[C@@]4(C(=O)Cn4ccnc4)[C@@]3(C)C[C@H](O)[C@@]12F` [Example 45, 16,17-[(Cyclohexylmethylene)bis(oxy)]-9-fluoro-11-hydroxy-21-(imidazol-1-yl)-pregna-1,4-diene-3,20-dione[11β,16α(R)]], the IC50 in series [1] (setting [3]) is over 1000 nM. Besides, the “TNF-α secretion IC50” value with TNF-α is “Not active”.

Take `CN1CCC(C2O[C@@H]3C[C@H]4[C@@H]5CCC6=CC(=O)C=C[C@]6(C)[C@H]5[C@@H](O)C[C@]4(C)[C@]3(C(=O)CO)O2)CC1` (stereo partly drawn) [Example 56, 16,17-[(1-Methylpiperidyl-4-methylene)bis(oxy)]-11,21-dihydroxypregna-1,4-diene-3,20-dione[11β,16α]]: in series [1] (mouse splenic lymphocytes, 72 h/37° C., [3H]TMD incorporation), the “Immunosuppresion IC50” value is given as “Not active”. Moreover, the IC50 with IL-1β was over 1000 nM. Further, the “TNF-α secretion IC50” value in the series with TNF-α is “Not active”.

On to `C[C@]12C=CC(=O)C=C1CC[C@H]1[C@@H]3C[C@H]4OC(c5cccnc5)O[C@@]4(C(=O)CO)[C@@]3(C)C[C@H](O)[C@@]12F` (stereo partly drawn) [Example 62], for which the “Steroid 14 Concentration” value in the series with alkaline phosphatase (mutual prodrug 17 + alkaline phosphatase, 2.10 Hours @ 37° C.) was determined as 22.6 nmol/mL. Besides, the IC50 came to 1.9 nM in series [1] (setting [2]), 350 nM with IL-1β and 11 nM with TNF-α. In the series on cytokine release, the “anti-inflammatory activity (cytokine release inhibition), assessment in words” value is listed as “potent”.

Consider `C[C@]12C=CC(=O)C=C1CC[C@H]1[C@@H]3C[C@H]4O[C@@H](C5CCCCC5)O[C@@]4(C(=O)CSc4ccncc4)[C@@]3(C)C[C@H](O)[C@@]12F` [Example 47, 16,17-[(Cyclohexylmethylene)bis(oxy)]-9-fluoro-11-hydroxy-21-(pyridin-4-yl-thio)-pregna-1,4-diene-3,20-dione[11β,16α(R)]], for which the IC50 in series [1] (setting [3]) amounted to 66 nM. The “TNF-α secretion IC50” value in the series with TNF-α was “Not active”.

`C[C@]12C=CC(=O)C=C1CC[C@@H]1[C@@H]2[C@@H](O)C[C@@]2(C)[C@H]1C[C@H]1OC(c3cccnc3)O[C@]12C(=O)CO` (stereo partly drawn) [Example 59]: the IC50 in series [1] (setting [3]) came to 2 nM; in the series with TNF-α (Homo sapiens, 24 h), 85 nM. Moreover, the “anti-inflammatory activity (cytokine release inhibition), assessment in words” value in the series on cytokine release was “potent”.

With `CN1CCC(C2O[C@@H]3C[C@H]4[C@@H]5CCC6=CC(=O)C=C[C@]6(C)[C@@]5(F)[C@@H](O)C[C@]4(C)[C@]3(C(=O)CO)O2)CC1` (stereo partly drawn) [Example 57, 16,17-[(1-Methylpiperidyl-4-methylene)bis(oxy)]-9-fluoro-11,21-dihydroxypregna-1,4-diene-3,20-dione[11β,16α]], the IC50 (in series [1] (setting [3]); with IL-1β) was over 1000 nM in each case. In addition, the “TNF-α secretion IC50” value with TNF-α is recorded as “Not active”.

`CN1CCN(CC(=O)[C@@]23O[C@H](C4CCCCC4)O[C@@H]2C[C@H]2[C@@H]4CCC5=CC(=O)C=C[C@]5(C)[C@H]4[C@@H](O)C[C@@]23C)CC1` [Example 26, 16,17-[(Cyclohexylmethylene)bis(oxy)]-11-hydroxy-21-(4-methylpiperazyn-1-yl)-pregna-1,4-diene-3,20-dione[11β,16α(R)]]: the results for the IC50 (in series [1] (setting [3]); in the series with IL-1β) were 31 nM and over 1000 nM, respectively. Besides, the “TNF-α secretion IC50” value with TNF-α is given as “Not active”.

For the compound `C[C@]12C=CC(=O)C=C1CC[C@@H]1[C@@H]2[C@@H](O)C[C@@]2(C)[C@H]1C[C@H]1O[C@@H](C3CCCCC3)O[C@]12C(=O)CO` [Example 22, 16,17-[(Cyclohexylmethylene)bis(oxy)]-11,21-dihydroxypregna-1,4-diene-3,20-dione[11β,16α(R)]], the IC50 came out at 1.5 nM in series [1] (setting [3]); 2.1 nM in the series on IL-1β; 12 nM with TNF-α (Homo sapiens, 24 h).

Turning to `C[C@]12C=CC(=O)C=C1CC[C@H]1[C@@H]3C[C@H]4O[C@@H](C5CCCCC5)O[C@@]4(C(=O)CO)[C@@]3(C)C[C@H](O)[C@@]12F` [Example 23, 16,17-[(Cyclohexylmethylene)bis(oxy)]-9-fluoro-11,21-dihydroxypregna-1,4-diene-3,20-dione[11β,16α(R)]], the IC50 stood at 0.34 nM in series [1] (setting [3]) and 1.2 nM in the series with TNF-α (Homo sapiens, 24 h). Besides, the “anti-inflammatory activity (cytokine release inhibition), assessment in words” value in the series on cytokine release is given as “potent”.

Turning to `C[C@]12C=CC(=O)C=C1CC[C@H]1[C@@H]3C[C@H]4OC(c5cccnc5)O[C@@]4(C(=O)CO)[C@@]3(C)C[C@H](O)[C@@]12F` (single isomer, unassigned) [Example 22R-epimer], the IC50 was found to be 0.89 nM in series [1] (setting [2]) and 12 nM with TNF-α.

As to `C[C@]12C=CC(=O)C=C1CC[C@H]1[C@@H]3C[C@H]4O[C@@H](C5CCCCC5)O[C@@]4(C(=O)CN4CCOCC4)[C@@]3(C)C[C@H](O)[C@@]12F` [Example 34, 16,17-[(Cyclohexylmethylene)bis(oxy)]-9-fluoro-11-hydroxy-21-(4-morpholin-1-yl)-pregna-1,4-diene-3,20-dione[11β,16α(R)]], the IC50 in series [1] (setting [3]) is 20 nM; in the series with TNF-α (Homo sapiens, 24 h), over 1000 nM.
